Test results taken from paper PMC10891031 (2024).

Assay: plasma from a Sprague Dawley rat
Details: 37 °C, up to 15 min

With H-ACGLSGLGVA-NH2 the fragment found was “[^18F]FNA, 5 min”.
